Measurements published in patent US20260308116A1, “TERTIARY AMINE COMPOUNDS CONTAINING AN ALKYNE OR AN AZIDE MOIETY AND THEIR USE” (INSTITUT NATIONAL DE LA SANTÉ ET DE LA RECHERCHE MÉDICALE, priority 2023, published 2026).
Read-outs that look alike come from different tables or passages of the source.

Legend:
FA pathway = settings: Semlow et al. 2016; Li et al. 2020; cited from earlier work
DNA [1] = settings: photoactivated by UVA (Dunnick et al. 1987); cited from earlier work
HeLa cells [2] = assay: Detection of G2 arrest by flow cytometry
[3] = tested on: primary fibroblast cells from non-FA subjects (C3, C4); assay: Repair of lesions in non-FA primary fibroblasts; format: cell-based
Protocol: HeLa, Jurkat and FA or XP primary cells (10^6 per dish) were seeded into 10 cm culture dishes and incubated overnight in culture medium. The following day, samples were treated with 0.5 μM click-Melphalan (Example 1), 0.5 μM click-MonoMelphalan (Example 2) or DMSO vehicle for 1 h. After treatment, cells were PBS-washed and released into medium. At designated time points, samples were harvested and fixed in EtOH 70%. Fixed cells where incubated in a click reaction buffer (50 μM Alexa fluor 647 azide, 1 mM copper (II) sulfate, 100 mM sodium ascorbate, 100 mM Tris-HCl pH 8.0) for 30 min at room temperature and then washed extensively using 3×5% FBS in PBS rinses to remove unbound reporter. Samples were stained with 5 μg/mL propidium iodide in 3% FBS in PBS and then analyzed using an LSR Fortessa flow cytometer (BD Biosciences, San Jose, CA). Ten thousand events were collected for each sample and gated using forward-versus side-scatter to eliminate cell debris and doublets. The data were analyzed using FlowJo software version 7.6.5 (Tree Star, San Carlos, CA).
FA patient skin fibroblast cells were cryopreserved at Saint-Louis Hospital (Paris, France). Informed consents were obtained from the patients and/or their relatives and IRB approval from the INSERM was given under the number 12-078. […]

HeLa cells [4] = assay: Repair of lesions in HeLa cells, click reaction and flow cytometry
HeLa cells [5] = assay: Dual parameter plot assay (click / propidium iodide)
HeLa FANCD2 KO cells = assay: as above
[6] = tested on: fibroblast cells from XP patients (XP1, XP2); assay: Repair of lesions in XP patient fibroblasts
[7] = tested on: primary fibroblast cells from FA patients (FA1, FA2); assay: Repair of lesions in FA patient primary fibroblasts
HeLa cells [8] = assay: Reverse alkaline comet assay (ICL formation)
HeLa cells [9] = assay: Clonogenic survival assay
[10] = tested on: cells from subject C3 (non-XP); assay: Repair of lesions in control (non-XP) fibroblasts
DNA [11] = assay: Detection of click agents in cells by microscopy (Alexa Fluor 647 azide)
[12] = tested on: PHA-stimulated lymphocytes from FA patients; assay: Repair of lesions in FA patient lymphocytes; settings: both FA patients, 48 h post treatment

O=c1ccc2cc3ccoc3cc2o1 [Psoralen]
repair of psoralen-induced ICLs by FA (FA pathway): not preferentially repaired by FA
type of DNA lesions generated (DNA [1]): almost exclusively ICLs

N[C@@H](Cc1ccc(N(CCCl)CCCl)cc1)C(=O)O [melphalan, (S)-2-amino-3-(4-(bis(2-chloroethyl)amino)phenyl)propanoic acid, reference compound]
overall biological response, melphalan vs click-melphalan (HeLa cells [2]): equivalent biological response
cells still positive for melphalan [3]: less than 25%
effect of added non-clickable melphalan on repair of click-mono-melphalan monoadducts (HeLa cells [4]): inhibited by the addition of non-clickable melphalan during the first 24 h of recovery
cell cycle phase of positive cells at 12 h (HeLa cells [5]): most of the HeLa positive cells are blocked in late S-G2
fluorescence at 24 h (HeLa cells [5]): a decrease in fluorescence is observed at 24 h
repair at 48 h (HeLa cells [5]): full repair at 48 h
cell cycle block and repair until 48 h (HeLa FANCD2 KO cells): remained blocked in late S-G2 phase until 48 h with unrepaired DNA lesions
cells still positive for melphalan [6]: ~75%
cells still positive for melphalan [7]: ~100%
persistence of melphalan-induced lesions [7]: persisted in the FA patient cells up to 48 h
IR-induced tail moment after pre-treatment (HeLa cells [8]): large decrease in the IR-induced tail moment
visual comet score in the absence of IR (HeLa cells [8]): neither Melphalan, click-Melphalan (Example 1), mono-melphalan (Comparative Example 1) nor click-mono-melphalan (Example 2) generated a visual comet score beyond the vehicle-treated control
number of colonies formed (clonogenic survival) (HeLa cells [9]): similarly reduces the number of colonies formed with no significative differences
toxicity compared to mono-melphalan (HeLa cells [9]): higher toxicity of melphalan compared to mono-melphalan
cells still positive for melphalan [10]: 25%
fluorescence in cells after click reaction (DNA [11]): do not present significant levels of fluorescence

N[C@@H](Cc1ccc(N(CCO)CCCl)cc1)C(=O)O [mono-melphalan, (S)-2-Amino-3-(4-((2-chloroethyl) (2-hydroxyethyl)amino)phenyl)propanoic acid]
repair of lesions in PHA-stimulated lymphocytes [12]: able to repair mono-melphalan
dependence of the repair delay on DNA content (HeLa FANCD2 KO cells; FIG. 7A left panel): observed in all cells independently of their DNA content
repair of DNA lesions at 24 h (HeLa FANCD2 KO cells; HeLa FANCD2 KO compared to HeLa, 24 h, FIG. 7A left panel): slightly delayed in HeLa FANCD2 KO at 24 h compared to HeLa cells
cells still positive for mono-melphalan ([6]; XP1 and XP2, 48 h, FIG. 11B): ~100%
persistence of mono-melphalan-induced lesions ([6]; XP compared to non-XP cells, up to 48 h, FIG. 11A, 11B): persisted in the XP patient cells up to 48 hours
reduction of signal during repair of lesions, FA vs non-FA cells ([7]; FA1, FA2 vs C3, C4 fibroblasts, FIG. 9B): No significant differences in the reduction of signal
visual comet score in the absence of IR (HeLa cells [8]; no IR, FIG. 1C, 1D, 2C): neither Melphalan, click-Melphalan (Example 1), mono-melphalan (Comparative Example 1) nor click-mono-melphalan (Example 2) generated a visual comet score beyond the vehicle-treated control
number of colonies formed (clonogenic survival) (HeLa cells [9]; 1 h treatment, colonies after 15 days, parent vs click compound, FIG. 1A, 1B): similarly reduces the number of colonies formed with no significative differences
cells still positive for mono-melphalan ([10]; subject C3, 48 h, FIG. 11B): ~0%
